Data from publication PMC12705620 (Frontiers in Pharmacology, 2025).
Bridge positions count the residues as written; N and C are the ends. Square brackets hold non-standard residues; d marks the D form. Peptide text beside a SMILES is read from it. I, II: the chains in the order shown. Dap = NC[C@H](N)C(=O)O; Ahx = NCCCCCC(=O)O

System: TNF-α production by unstimulated dTHP-1 macrophages
Test: TNFα induction by peptides alone in macrophages
Assay type: cell-based, human
Settings: 2 µM peptide, 4 h, no endotoxin stimulation, versus unstimulated cells
Protocol: The endotoxin-neutralizing capacity of the peptides was assessed by measuring tumor necrosis factor-alpha (TNF-α) production by dTHP-1 macrophages. dTHP-1 macrophages were stimulated with either lipopolysaccharide (LPS; E. coli O111:B4; 5 ng/mL, Sigma-Aldrich) or UV-inactivated S. aureus JAR060131 (MOI 2; as described in Section 5.2), in the presence or absence of one or 2 µM peptides. Cells were cultured in serum-free RPMI and incubated for 4 h at 37 °C with 5% CO2. Positive controls consisted of cells stimulated with LPS or UV-S. aureus without peptide treatment (no treatment, NT), and unstimulated cells served as negative controls. After stimulation, cell supernatants were collected, and cytokine levels of TNF-α were quantified using human ELISA kits (R&D Systems, USA) according to the manufacturer’s instructions. Each condition was tested in triplicate.

N=C(N)NCCC[C@H](NC(=O)[C@H](Cc1c[nH]c2ccccc12)NC(=O)[C@H](CCC(N)=O)NC(=O)[C@H](Cc1c[nH]c2ccccc12)NC(=O)[C@H](CCCNC(=N)N)NC(=O)[C@@H](N)CCCNC(=N)N)C(=O)NC[C@H](NC(=O)[C@H](CCCNC(=N)N)NC(=O)[C@H](Cc1c[nH]c2ccccc12)NC(=O)[C@H](CCC(N)=O)NC(=O)[C@H](Cc1c[nH]c2ccccc12)NC(=O)[C@H](CCCNC(=N)N)NC(=O)[C@@H](N)CCCNC(=N)N)C(=O)NCCCCCC(=O)N[C@@H](CSSC[C@H](NC(=O)CCCCCNC(=O)[C@H](CNC(=O)[C@H](CCCNC(=N)N)NC(=O)[C@H](Cc1c[nH]c2ccccc12)NC(=O)[C@H](CCC(N)=O)NC(=O)[C@H](Cc1c[nH]c2ccccc12)NC(=O)[C@H](CCCNC(=N)N)NC(=O)[C@@H](N)CCCNC(=N)N)NC(=O)[C@H](CCCNC(=N)N)NC(=O)[C@H](Cc1c[nH]c2ccccc12)NC(=O)[C@H](CCC(N)=O)NC(=O)[C@H](Cc1c[nH]c2ccccc12)NC(=O)[C@H](CCCNC(=N)N)NC(=O)[C@@H](N)CCCNC(=N)N)C(N)=O)C(N)=O [LBT-1] (I: H-RRWQWR[Dap][Ahx]C-NH2 / II: H-RRWQWR[Dap][Ahx]C-NH2 / III: H-RRWQWR / IV: H-RRWQWR; amide I:7-III:C, II:7-IV:C; disulfide I:9-II:9; N-terminus and C-terminus assumed)
TNFα induction by peptide alone: minimal but significant
